Values joined by “and” are separate entries in the source; they are usually repeats but may differ in a detail not shown here. Equal values may be shown once.
System: 855422-203-R-J1-PDC complex spheroids, viability
Assay: Anticancer human tumor 855422-203-R-J1-PDC patient-derived bladder carcinoma cell line growth inhibition [CLK]
Details: for viability, T/C: stronger effect = lower value; active = viability on the fitted dose curve at most 10% of control; inactive = the rest
How it was run: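 Patient-derived tumor cells grown as complex spheroids with HUVEC endothelial cells and mesenchymal stem cells, treated with drug combinations. Concentrations descend in half-log steps from near clinical Cmax, or from 10 microM if Cmax unknown.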

[1] = curve of first compound, second compound 0.0316 µM
[2] = curve of first compound, second compound 0.1 µM
[3] = curve of first compound, second compound 0.316 µM
[4] = curve of first compound, second compound 1 µM
[5] = curve of first compound, second compound 3.16 µM
[6] = curve of first compound, second compound 10 µM
[7] = second compound 0.0316 µM, first compound 0.0316 µM
[8] = second compound 0.0316 µM, first compound 0.1 µM
[9] = second compound 0.0316 µM, first compound 0.316 µM
[10] = second compound 0.0316 µM, first compound 1 µM
[11] = second compound 0.0316 µM, first compound 3.16 µM
[12] = second compound 0.0316 µM, first compound 10 µM
[13] = second compound 0.1 µM, first compound 0.0316 µM
[14] = second compound 0.1 µM, first compound 0.1 µM
[15] = second compound 0.1 µM, first compound 0.316 µM
[16] = second compound 0.1 µM, first compound 1 µM
[17] = second compound 0.1 µM, first compound 3.16 µM
[18] = second compound 0.1 µM, first compound 10 µM
[19] = second compound 0.316 µM, first compound 0.0316 µM
[20] = second compound 0.316 µM, first compound 0.1 µM
[21] = second compound 0.316 µM, first compound 0.316 µM
[22] = second compound 0.316 µM, first compound 1 µM
[23] = second compound 0.316 µM, first compound 3.16 µM
[24] = second compound 0.316 µM, first compound 10 µM
[25] = second compound 1 µM, first compound 0.0316 µM
[26] = second compound 1 µM, first compound 0.1 µM
[27] = second compound 1 µM, first compound 0.316 µM
[28] = second compound 1 µM, first compound 1 µM
[29] = second compound 1 µM, first compound 3.16 µM
[30] = second compound 1 µM, first compound 10 µM
[31] = second compound 3.16 µM, first compound 0.0316 µM
[32] = second compound 3.16 µM, first compound 0.1 µM
[33] = second compound 3.16 µM, first compound 0.316 µM
[34] = second compound 3.16 µM, first compound 1 µM
[35] = second compound 3.16 µM, first compound 3.16 µM
[36] = second compound 3.16 µM, first compound 10 µM
[37] = second compound 10 µM, first compound 0.0316 µM
[38] = second compound 10 µM, first compound 0.1 µM
[39] = second compound 10 µM, first compound 0.316 µM
[40] = second compound 10 µM, first compound 1 µM
[41] = second compound 10 µM, first compound 3.16 µM
[42] = second compound 10 µM, first compound 10 µM
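Note: spheroids exposed to drugs for seven days before readout.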
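Throughout, for viability, T/C: 100% = DMSO vehicle control wells.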

CCCS(=O)(=O)Nc1ccc(F)c(C(=O)c2c[nH]c3ncc(-c4ccc(Cl)cc4)cc23)c1F + CNC(=O)c1ccc(Nc2nc(OC3CCCC3)c3c(-c4ccc5nc(C)oc5c4)c[nH]c3n2)c(OC)c1
1030 nM: IC50 [2]
5680 nM: IC50 [1]
< 31.6 nM: IC50 [3] | IC50 [4] | IC50 [5] | IC50 [6]
active: viability, T/C [12] 3.65% | viability, T/C [18] 6.89%
inactive: viability, T/C [7] 90.8% | viability, T/C [8] 79.9% | viability, T/C [9] 112% | viability, T/C [10] 92.2% | viability, T/C [11] 114% | viability, T/C [13] 50.6% | viability, T/C [14] 52.7% | viability, T/C [15] 48.5% | viability, T/C [16] 49.6% | viability, T/C [17] 46% | viability, T/C [19] 23.8% | viability, T/C [20] 23.8% | viability, T/C [21] 19.8% | viability, T/C [22] 19.9% | viability, T/C [23] 21.4% | viability, T/C [24] 5.35% | viability, T/C [25] 17.7% | viability, T/C [26] 20.9% | viability, T/C [27] 17.9% | viability, T/C [28] 20.2% | viability, T/C [29] 16.9% | viability, T/C [30] 4.43% | viability, T/C [31] 22.2% | viability, T/C [32] 14.9% | viability, T/C [33] 18.7% | viability, T/C [34] 15.1% | viability, T/C [35] 19.5% | viability, T/C [36] 4.41% | viability, T/C [37] 18.2% | viability, T/C [38] 19.6% | viability, T/C [39] 20% | viability, T/C [40] 17.6% | viability, T/C [41] 15.1% | viability, T/C [42] 5.26%

C#Cc1c(F)ccc2cc(O)cc(-c3ncc4c(N5CC6CCC(C5)N6)nc(OCC56CCCN5CC(F)C6)nc4c3F)c12 (stereo unspecified)
inactive: viability, T/C (compound 0.0316 µM) 118% and 106% | viability, T/C (compound 0.1 µM) 92.7% and 95.3% | viability, T/C (compound 0.316 µM) 117% and 113% | viability, T/C (compound 1 µM) 114% and 97.7% | viability, T/C (compound 3.16 µM) 119% and 104% | viability, T/C (compound 10 µM) 98.7% and 112%
> 10000 nM: IC50 (curve of compound)

COc1c(OCCCN2CCOCC2)ccc2c3n(c(=NC(=O)c4cnc(N)nc4)nc12)CCN3 + CN1CCN(c2cc(C(=O)Nc3cc4cc(-c5cnn(C)c5)ccc4cn3)ccn2)CC1
< 3.16 nM: IC50 [3] | IC50 [4] | IC50 [5] | IC50 [6]
inactive: viability, T/C (second compound 0.0316 µM, first compound 0.00316 µM) 99.6% | viability, T/C (second compound 0.0316 µM, first compound 0.01 µM) 62.2% | viability, T/C [7] 36.4% | viability, T/C [8] 11.9% | viability, T/C (second compound 0.1 µM, first compound 0.00316 µM) 72.3% | viability, T/C (second compound 0.1 µM, first compound 0.01 µM) 63.5% | viability, T/C [13] 31.1%
active: viability, T/C [9] 3.81% | viability, T/C [10] 2.23% | viability, T/C [14] 10.7% | viability, T/C [15] 3.24% | viability, T/C [16] 2.43% | viability, T/C (second compound 0.316 µM, first compound 0.00316 µM) 8.06% | viability, T/C (second compound 0.316 µM, first compound 0.01 µM) 6.72% | viability, T/C [19] 3.02% | viability, T/C [20] 1.03% | viability, T/C [21] 0.35% | viability, T/C [22] 0.51% | viability, T/C (second compound 1 µM, first compound 0.00316 µM) 0.24% | viability, T/C (second compound 1 µM, first compound 0.01 µM) 0.17% | viability, T/C [25] 0.09% | viability, T/C [26] 0.07% | viability, T/C [27] 0.05% | viability, T/C [28] 0.12% | viability, T/C (second compound 3.16 µM, first compound 0.00316 µM) 0.37% | viability, T/C (second compound 3.16 µM, first compound 0.01 µM) 0.37% | viability, T/C [31] 0.6% | viability, T/C [32] 0.12% | viability, T/C [33] 0.13% | viability, T/C [34] 0.1% | viability, T/C (second compound 10 µM, first compound 0.00316 µM) 0.23% | viability, T/C (second compound 10 µM, first compound 0.01 µM) 0.33% | viability, T/C [37] 0.19% | viability, T/C [38] 0.18% | viability, T/C [39] 0.32% | viability, T/C [40] 0.15%
16.1 nM: IC50 [2]
16.8 nM: IC50 [1]

CCc1c2c(nc3ccc(O)cc13)-c1cc3c(c(=O)n1C2)COC(=O)[C@]3(O)CC
inactive: viability, T/C (compound 0.00316 µM) 94.3% and 93.4% | viability, T/C (compound 0.01 µM) 16.8% and 20.4%
6.21 nM and 6.32 nM: IC50 (curve of compound)
active: viability, T/C (compound 0.0316 µM) 15.4% and 10.1% | viability, T/C (compound 0.1 µM) 5.45% and 6.24% | viability, T/C (compound 0.316 µM) 3.48% and 3.36% | viability, T/C (compound 1 µM) 1.87% and 2.42%

C#Cc1c(F)ccc2cc(O)cc(-c3ncc4c(N5CC6CCC(C5)N6)nc(OCC56CCCN5CC(F)C6)nc4c3F)c12 (stereo unspecified) + CN1CCN(c2cc(C(=O)Nc3cc4cc(-c5cnn(C)c5)ccc4cn3)ccn2)CC1
> 10000 nM: IC50 [1] | IC50 [2]
active: viability, T/C [25] 0.86% | viability, T/C [26] 0.58% | viability, T/C [27] 0.22% | viability, T/C [28] 0.24% | viability, T/C [29] 0.22% | viability, T/C [30] 0.17% | viability, T/C [31] 0.39% | viability, T/C [32] 0.72% | viability, T/C [33] 0.49% | viability, T/C [34] 0.38% | viability, T/C [35] 1.64% | viability, T/C [36] 0.18% | viability, T/C [37] 0.42% | viability, T/C [38] 0.85% | viability, T/C [39] 0.3% | viability, T/C [40] 0.35% | viability, T/C [41] 0.3% | viability, T/C [42] 0.2%
inactive: viability, T/C [7] 106% | viability, T/C [8] 98.8% | viability, T/C [9] 119% | viability, T/C [10] 98.8% | viability, T/C [11] 104% | viability, T/C [12] 113% | viability, T/C [13] 84.4% | viability, T/C [14] 84.4% | viability, T/C [15] 85.1% | viability, T/C [16] 89.2% | viability, T/C [17] 93.3% | viability, T/C [18] 81.9% | viability, T/C [19] 13% | viability, T/C [20] 12.4% | viability, T/C [21] 14.8% | viability, T/C [22] 15.1% | viability, T/C [23] 14.9% | viability, T/C [24] 8.68%
< 31.6 nM: IC50 [3] | IC50 [4] | IC50 [5] | IC50 [6]

CC1COCCN1c1cc(C2(S(C)(=N)=O)CC2)nc(-c2ccnc3[nH]ccc23)n1 (stereo unspecified) + CN1CCN(c2cc(C(=O)Nc3cc4cc(-c5cnn(C)c5)ccc4cn3)ccn2)CC1
< 31.6 nM: IC50 [3] | IC50 [4] | IC50 [5] | IC50 [6]
inactive: viability, T/C [7] 103% | viability, T/C [8] 117% | viability, T/C [9] 89.6% | viability, T/C [10] 93% | viability, T/C [11] 32% | viability, T/C [12] 10.6% | viability, T/C [13] 70.6% | viability, T/C [14] 91% | viability, T/C [15] 80.3% | viability, T/C [16] 80.1% | viability, T/C [17] 24% | viability, T/C [18] 12.2% | viability, T/C [19] 9.48% | viability, T/C [20] 14%
2250 nM: IC50 [1]
active: viability, T/C [21] 7.7% | viability, T/C [22] 6% | viability, T/C [23] 5.18% | viability, T/C [24] 3.25% | viability, T/C [25] 0.34% | viability, T/C [26] 0.27% | viability, T/C [27] 1.14% | viability, T/C [28] 0.17% | viability, T/C [29] 0.14% | viability, T/C [30] 0.19% | viability, T/C [31] 0.75% | viability, T/C [32] 0.61% | viability, T/C [33] 0.62% | viability, T/C [34] 0.51% | viability, T/C [35] 0.85% | viability, T/C [36] 0.37% | viability, T/C [37] 0.44% | viability, T/C [38] 0.31% | viability, T/C [39] 0.9% | viability, T/C [40] 0.36% | viability, T/C [41] 1.72% | viability, T/C [42] 0.63%
1850 nM: IC50 [2]

COC1C=CCC(C)C(C)S(=O)(=O)NC(=O)c2ccc3c(c2)N(CC2CCC21)CC1(CCCc2cc(Cl)ccc21)CO3 (stereo unspecified)
6060 nM and 8070 nM: IC50 (curve of compound)
inactive: viability, T/C (compound 0.0316 µM) 96% and 134% | viability, T/C (compound 0.1 µM) 105% and 90.2% | viability, T/C (compound 0.316 µM) 111% and 128% | viability, T/C (compound 1 µM) 103% and 137% | viability, T/C (compound 3.16 µM) 119% and 191%
6.05% and 30.3%: viability, T/C (compound 10 µM)

COc1c(OCCCN2CCOCC2)ccc2c3n(c(=NC(=O)c4cnc(N)nc4)nc12)CCN3
inactive: viability, T/C (compound 0.00316 µM) 86% and 84.6% | viability, T/C (compound 0.01 µM) 55.7% and 52.6% | viability, T/C (compound 0.0316 µM) 35.4% and 31.9% | viability, T/C (compound 0.1 µM) 12.5% and 11%
active: viability, T/C (compound 0.316 µM) 4.09% and 3.82% | viability, T/C (compound 1 µM) 2.57% and 1.98%
14.1 nM and 12.1 nM: IC50 (curve of compound)
